# Experimental data from the supplement of paper PMC11208160.
# Experiment: recombinant barcode read abundance after kanamycin selection (control-corrected) (log10(CPM+1)); higher = more efficient recombination; sequences stand for … in AGTGCAGAGAAAATCGGCCAGTTTTCTCTGCCTGCAGTCCGCATGCCGT…AGATTTATGCAGCGGACTGCCTTTCTCCCAAAGTGATAAACCGGACAGTATCATGGACCGGTTTTCCCGGTAATCCGTATTTGCAAGGTTGGTTTCACT; site = the 11-nt target
# Summary of the method: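 Recombination efficiency was calculated from barcode counts at recombinant junctions, normalized to counts per million, averaged and corrected by the control. Each value is given as log10(CPM+1). The constructs were Gibson-cloned oligos (promoter, target, barcode, J23119-driven first 104 bridge RNA bases) in a vector with the remaining 73 bp and a T7-inducible recombinase, co-electroporated into E. coli with a donor plasmid and plated in duplicate on chloramphenicol/ampicillin LB agar (control) or chloramphenicol/ampicillin/kanamycin with 0.1 mM IPTG.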
# 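Also: IS621 recombinase and bridge RNA in Escherichia coli cells.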
row,Sequence,recombinant barcode read abundance (log10)
1,CTAATTCCTTGGGTTCTAACCTGTTGCAT (site CTAAATCCTAT),0.0881
2,CTAATTCCTTGGGTTCTAACCTGTTGCAT (site CTAACTCCTAT),0.0994
3,CTAATTCCTTGGGTTCTAACCTGTTGCAT (site CTAAGTCCTAT),0.0341
4,CTAATTCCTTGGGTTCTAACCTGTTGCAT (site CTAATTCCTAT),0.252
5,CTACACTCTTGGGTTCTAACCTGTTGCCT (site CAACACTCTAG),1.07
6,CTACACTCTTGGGTTCTAACCTGTTGCCT (site CCACACTCTAG),0.409
7,CTACACTCTTGGGTTCTAACCTGTTGCCT (site CGACACTCTAG),0.28
8,CTACACTCTTGGGTTCTAACCTGTTGCCT (site CTACACTCTAG),2.18
9,CTACAGCCTTGGGTTCTAACCTGTTGCTT (site CTACAACCTAA),0.636
10,CTACAGCCTTGGGTTCTAACCTGTTGCTT (site CTACACCCTAA),0.0559
11,CTACAGCCTTGGGTTCTAACCTGTTGCTT (site CTACAGCCTAA),0.798
12,CTACAGCCTTGGGTTCTAACCTGTTGCTT (site CTACATCCTAA),0.0933
13,CTACCAACTTGGGTTCTAACCTGTTGCCT (site CTACCAACTAG),0.41
14,CTACCAACTTGGGTTCTAACCTGTTGCCT (site CTACCACCTAG),0.0179
15,CTACCAACTTGGGTTCTAACCTGTTGCCT (site CTACCAGCTAG),0.124
16,CTACCAACTTGGGTTCTAACCTGTTGCCT (site CTACCATCTAG),0.0148
17,CTACCAGCTTGGGTTCTAACCTGTTGCCT (site CTACCAACTAG),0.191
18,CTACCAGCTTGGGTTCTAACCTGTTGCCT (site CTACCACCTAG),0.0143
19,CTACCAGCTTGGGTTCTAACCTGTTGCCT (site CTACCAGCTAG),1.17
20,CTACCAGCTTGGGTTCTAACCTGTTGCCT (site CTACCATCTAG),0.0991
21,CTACCATCTTGGGTTCTAACCTGTTGCCG (site CTACCATCTCG),0.255
22,CTACCATCTTGGGTTCTAACCTGTTGCCG (site CTACCGTCTCC),0.157

row,Sequence,recombinant barcode read abundance (log10)
1,CTACCCTCTTGGGTTCTAACCTGTTGCAT (site CTAACCTCTAT),0.026
2,CTACCCTCTTGGGTTCTAACCTGTTGCAT (site CTACCCTCTAT),2.87
3,CTACCCTCTTGGGTTCTAACCTGTTGCAT (site CTAGCCTCTAT),0.0456
4,CTACCCTCTTGGGTTCTAACCTGTTGCAT (site CTATCCTCTAT),0.413
5,CTACCTTCTTGGGTTCTAACCTGTTGCCT (site CAACCTTCTAG),0.203
6,CTACCTTCTTGGGTTCTAACCTGTTGCCT (site CTACCTTCTAG),1.37
7,CTACGGACTTGGGTTCTAACCTGTTGCTG (site CTACGAACTCA),1.82
8,CTACGGACTTGGGTTCTAACCTGTTGCTG (site CTACGCACTCA),0.206
9,CTACGGACTTGGGTTCTAACCTGTTGCTG (site CTACGGACTCA),2.77
10,CTACGGACTTGGGTTCTAACCTGTTGCTG (site CTACGTACTCA),0.0171
11,CTACGTACTTGGGTTCTAACCTGTTGCCT (site ATACGTACTAG),0.00899
12,CTACGTACTTGGGTTCTAACCTGTTGCCT (site CTACGTACTAG),1.3
13,CTACGTACTTGGGTTCTAACCTGTTGCCT (site GTACGTACTAG),0.0661
14,CTACGTACTTGGGTTCTAACCTGTTGCCT (site TTACGTACTAG),0.0415
15,CTACGTACTTGGGTTCTAACCTGTTGCTG (site CTACGAACTCA),0.0136
16,CTACGTACTTGGGTTCTAACCTGTTGCTG (site CTACGCACTCA),0.138
17,CTACGTACTTGGGTTCTAACCTGTTGCTG (site CTACGGACTCA),0.0671
18,CTACGTACTTGGGTTCTAACCTGTTGCTG (site CTACGTACTCA),1.75
19,CTACTAACTTGGGTTCTAACCTGTTGCCT (site CTACTAACTAA),0.0105
20,CTACTAACTTGGGTTCTAACCTGTTGCCT (site CTACTAACTAC),0.0952
21,CTACTAACTTGGGTTCTAACCTGTTGCCT (site CTACTAACTAG),1.3
22,CTACTAACTTGGGTTCTAACCTGTTGCCT (site CTACTAACTAT),0.182

row,Sequence,recombinant barcode read abundance (log10)
1,CTACTAGCTTGGGTTCTAACCTGTTGCAC (site CTACTAGCTAT),0.0299
2,CTACTAGCTTGGGTTCTAACCTGTTGCAC (site CTACTAGCTCT),0.433
3,CTACTAGCTTGGGTTCTAACCTGTTGCAC (site CTACTAGCTGT),1.66
4,CTACTAGCTTGGGTTCTAACCTGTTGCAC (site CTACTAGCTTT),0.727
5,CTACTTACTTGGGTTCTAACCTGTTGCCT (site CTAATTACTAG),0.0298
6,CTACTTACTTGGGTTCTAACCTGTTGCCT (site CTACTTACTAG),0.741
7,CTACTTACTTGGGTTCTAACCTGTTGCCT (site CTAGTTACTAG),0
8,CTACTTACTTGGGTTCTAACCTGTTGCCT (site CTATTTACTAG),0.1
9,CTAGAAGCTTGGGTTCTAACCTGTTGCGG (site CTAGAAGCTCC),1.31
10,CTAGAAGCTTGGGTTCTAACCTGTTGCGG (site CTGGAACCTCC),0.401
11,CTAGACTCTTGGGTTCTAACCTGTTGCTA (site CTAGACTCTAA),0.587
12,CTAGACTCTTGGGTTCTAACCTGTTGCTA (site CTAGACTCTCA),0.234
13,CTAGACTCTTGGGTTCTAACCTGTTGCTA (site CTAGACTCTGA),0.117
14,CTAGACTCTTGGGTTCTAACCTGTTGCTA (site CTAGACTCTTA),2.7
15,CTAGAGTCTTGGGTTCTAACCTGTTGCTT (site CTAGAGTCTAA),2.66
16,CTAGAGTCTTGGGTTCTAACCTGTTGCTT (site CTAGCGTCTAA),0.0496
17,CTAGATTCTTGGGTTCTAACCTGTTGCCT (site CAAGATTCTAG),0.167
18,CTAGATTCTTGGGTTCTAACCTGTTGCCT (site CCAGATTCTAG),0.116
19,CTAGATTCTTGGGTTCTAACCTGTTGCCT (site CGAGATTCTAG),0.077
20,CTAGATTCTTGGGTTCTAACCTGTTGCCT (site CTAGATTCTAG),1.49
21,CTAGCCGCTTGGGTTCTAACCTGTTGCTT (site AGCCTATCTTG),0.119
22,CTAGCCGCTTGGGTTCTAACCTGTTGCTT (site CTAGCCGCTAA),1.03

row,Sequence,recombinant barcode read abundance (log10)
1,CTAGCGGCTTGGGTTCTAACCTGTTGCAG (site CTAGCGGCTCT),2.05
2,CTAGCGGCTTGGGTTCTAACCTGTTGCAG (site CTAGCTCCTCT),0.0734
3,CTAGGCCCTTGGGTTCTAACCTGTTGCCT (site CTAGGCCCTAA),0.584
4,CTAGGCCCTTGGGTTCTAACCTGTTGCCT (site CTAGGCCCTAC),2.1
5,CTAGGCCCTTGGGTTCTAACCTGTTGCCT (site CTAGGCCCTAG),0.184
6,CTAGGCCCTTGGGTTCTAACCTGTTGCCT (site CTAGGCCCTAT),0.506
7,CTAGGCCCTTGGGTTCTAACCTGTTGCTT (site CTAGGCCCTAA),0.563
8,CTAGGCCCTTGGGTTCTAACCTGTTGCTT (site CTAGGCCCTAC),0.18
9,CTAGGCCCTTGGGTTCTAACCTGTTGCTT (site CTAGGCCCTAG),0.229
10,CTAGGCCCTTGGGTTCTAACCTGTTGCTT (site CTAGGCCCTAT),0.939
11,CTAGTACCTTGGGTTCTAACCTGTTGCCT (site CTAGTACCTAG),1.43
12,CTAGTACCTTGGGTTCTAACCTGTTGCCT (site TTAGTAACTAG),0.0602
13,CTAGTAGCTTGGGTTCTAACCTGTTGCGG (site CTAGTAGCTAC),0.553
14,CTAGTAGCTTGGGTTCTAACCTGTTGCGG (site CTAGTAGCTCC),1.56
15,CTAGTCCCTTGGGTTCTAACCTGTTGCCG (site CTAGTCCCTCG),1.79
16,CTAGTCCCTTGGGTTCTAACCTGTTGCCG (site TTAGTCCCTCG),0.176
17,CTAGTGGCTTGGGTTCTAACCTGTTGCCG (site CTAGTGGCTCG),1.3
18,CTAGTGGCTTGGGTTCTAACCTGTTGCCG (site TCGTCACCTAT),0.0446
19,CTATAGACTTGGGTTCTAACCTGTTGCCT (site CTATAGACTAG),1.11
20,CTATAGACTTGGGTTCTAACCTGTTGCCT (site CTATCGACTAG),0.163
